From patent US6635662B2, “Radicicol derivatives” (Kyowa Hakko Kogyo Co., Ltd., priority 1996, dated 2003)

Key:
Raf-1 protein = experiment: Effect of decreasing intracellular Raf-1 protein quantity in KNRK 5.2 cells; type: cell-based, rat; details: 40 hours, Raf-1 protein/total Erk2 protein ratio halved, read-out: Raf-1 protein quantity decrease: IC50
Method: (§1) Activated K-Ras gene-introduced rat kidney epithelial cell line KNRK 5.2 was cultured at 37° C. for 40 hours in an atmosphere of 5% carbon dioxide gas using Dulbecco's modified Eagle's medium (DMEM) which was supplemented with 10% fetal calf serum (FCS) and to which was added each radicicol derivative at respective test concentration. The resulting cells were lysed for 30 minutes at 4° C. in a cooled buffer for lysis use [50 mM HEPES NaOH, pH 7.4, 250 mM sodium chloride (NaCl), 1 mM ethylenediaminetetraacetic acid (EDTA), 1% Nonidet P-40 (NP40), 1 mM dithiothreitol (DTT), 1 mM phenylmethylsulfonyl fluoride (PMSF), 5 μg/ml leupeptin, 2 mM sodium orthovanadate (Na3VO4), 1 mM sodium fluoride (NaF), 10 mM β-glycerophosphate] and then centrifuged at 30,000 G for 10 minutes. The protein content of the thus prepared supernatant fluids was measured to prepare samples having the same protein quantity for each lane, and then separation of proteins was carried out by SDS-PAGE. The thus separated protein samples were transferred on a polyvinylidene difluoride (PVDF) membrane, and then anti-phosphorylation MAPK antibody (anti-phospho MAPK, manufactured by New England Biolabs), anti-Erk2 antibody (anti-Erk2, manufactured by Upstate Biotechnology) and anti-Raf-1 antibody (anti-Raf-1 (C-12), manufactured by Santa Cruz Biotechnology) were added thereto as primary antibodies and allowed to react with the proteins on the membrane. Thereafter, a horseradish peroxidase-labeled secondary antibody (anti-rabbit Ig antibody or anti-mouse Ig antibody, manufactured by Amersham) capable of reacting with respective primary antibodies was added thereto as the secondary antibody to carry out the reaction. Detection was carried out using ECL reagent (manufactured by Amersham), and the amount of phosphorylated Erk2 protein, total Erk2 protein and Raf-1 protein was determined by carrying out density scanning of the bands generated on the X-ray film. The Erk2 phosphorylation inhibition activity of radicicol derivatives is determined by calculating the ratio of phosphorylated Erk2 protein (phosphorylated Erk2 protein/total Erk2 protein) based on the results prepared from the samples of respective drug concentrations, which is expressed as the concentration of each derivative (IC50) by which the ratio becomes half in comparison with the case in which the drug is not added.

Erk2 phosphorylation = Erk2 phosphorylation inhibition activity in KNRK 5.2 cells; type: cell-based; details: Rattus norvegicus, 40 hours, phosphorylated Erk2/total Erk2 ratio halved
Method: as §1

[1] = tested on: v-src oncogene transformed cell line SR-3Y1; experiment: Growth inhibition test (MTT) on SR-3Y1; type: cell-based; details: Rattus norvegicus, SR3Y1, SR-3Y1 cells, 72 hours
Method: (§2) The cells were inoculated into a 96 well microplate (# 167008, manufactured by Nunc) in an amount of 1,000 cells per well and pre-cultured at 37° C. for 24 hours in a 5% carbon dioxide gas incubator using Dulbacco's modified Eagle's medium (DMEM) which had been supplemented with 10% fetal calf serum (FCS). Next, a DMSO solution of each test compound which had been adjusted to 10 mM was serially diluted with the culturing medium and add to the wells in 50 μl portions. Thereafter, the culturing was continued at 37° C. for 72 hours in the 5% carbon dioxide gas incubator. Five hours before completion of the culturing, 3-(4,5-dimethylthiazo-2-yl)-2,5-diphenyltetrazolium bromide (manufactured by Sigma, hereinafter referred to as “MTT”) which had been dissolved in the culturing medium to a final concentration of […] was dispensed into the wells in 50 μl portions. After completion of the culturing, DMSO was dispensed into the wells in […] portions, and the plate was vigorously stirred using a plate mixer to dissolve MTT-formazan crystals completely. Thereafter, absorbance at 550 nm was measured using a microplate reader MTP-32 (manufactured by Corona Denki). The cell growth inhibition activity was expressed by 50% inhibition concentration (IC50).

[2] = tested on: rat normal fibroblast cell line 3Y1-B; experiment: Growth inhibition test (MTT) on 3Y1-B; type: cell-based; details: 3Y1-B cells, 72 hours
Method: as §2

[3] = tested on: human breast cancer MX-1 solid tumor; experiment: Antitumor test on nude mouse-transplanted human breast cancer MX-1 solid tumor; type: in vivo; details: tumor volume ratio, 100 mg/kg per day i.v. once a day for 5 days, measured day 12 after administration
Method: From a tumor lump of a human breast cancer cell line MX-1 subcultured in nude mice (BALB/c nu/nu mice: CLEA Japan), a portion showing good growth was selected and cut into a 2 mm square fragment which was then transplanted under the abdominal side skin of each male nude mouse of 7 to 9 weeks of age using a trocar. The tumor size was measured on the 13th day after the tumor transplantation to select properly growing tumors having a tumor volume of 100 to 300 mm^3 (calculated by a calculation formula of “major axis×minor axis^2×½”), the mice were optionally grouped into 5 animals per group, and then each test compound which had been dissolved in a 7.5% cremohor EL (manufactured by Sigma)/5% dimethylacetamide (DMA)/87.5% physiological saline solution was administered to the mice by intravenous injection at a dosage of 0.05 ml (100 mg/kg) per day, once a day for 5 days. The antitumor activity of each test compound was expressed by a ratio (T/C) of the tumor volume (T) in the test drug-administered group to the tumor volume (C) in the control group on the 12th or 14th day after administration of the test compound.

[4] = tested on: intracellular tyrosine kinase; experiment: Inhibition test of intracellular tyrosine kinase (tyrosine-phosphorylated protein, Western blot); type: cell-based; details: Rattus norvegicus, SR3Y1; SR-3Y1 cells, 15 hours culture, tyrosine-phosphorylated protein reduced to half vs control; read-out: Inhibitory activity of intracellular tyrosine kinase IC50
Method: SR-3Y1 cells were cultured at 37° C. for 15 hours in an atmosphere of 5% carbon dioxide, using Dulbecco's modified Eagle's medium (DMEM) containing 10% fetal calf serum (FCS), to which each radicicol derivative to be tested had been added in varied concentration. The thus cultured cells were lysed at 4° C. for 20 minutes in a cooled buffer for lysis use (50 mM Tris HCl, pH 7.5, 150 mM sodium chloride (NaCl), 1% Triton X-100, 0.1% sodium dodecyl sulfate (SDS), 1% sodium deoxycholate, 2 mM ethylenediaminetetraacetic acid (EDTA), 1 mM phenylmethanesulfonyl fluoride (PMSF), 20 μM leupeptin, 0.15 unit/ml aprotinin, 1 mM sodium orthovanadate (Na3VO4) and then centrifuged at 20,000 G for 30 minutes. After measuring protein concentration in the resulting supernatant fluid, samples were adjusted to the same protein quantity per lane to carry out separation of protein by SDS-PAGE. […] Detection was carried out using ECL reagent (Amersham Co.), and the amount of tyrosine-phosphorylated protein was determined by scanning the density of bands prepared on an X-ray film. […]

Row | IC50 (Raf-1 protein) [nM] | IC50 (Erk2 phosphorylation) [nM] | IC50 [4] [nM] | SMILES | IC50 [1] [nM] | IC50 [2] [nM] | T/C (%) [3] [%]
1 | 340 | 350 | – | CC1CC2OC2C=CC=CC(=NOCc2ccccc2S(=O)(=O)N(C)C)Cc2c(Cl)c(O)cc(O)c2C(=O)O1 (stereo not shown) [Compound 50] | 21 | 120 | –
2 | 380 | 70 | – | CC1CC2OC2C=CC=CC(=NOCc2cccnc2)Cc2c(Cl)c(O)cc(O)c2C(=O)O1 (stereo not shown) [Compound 53] | < 4 | 8 | 46
3 | 190 | 110 | – | CC1CC2OC2C=CC=CC(=NOCCCCN2CCOCC2)Cc2c(Cl)c(O)cc(O)c2C(=O)O1 (stereo not shown) [Compound 64] | – | – | –
4 | 120 | 60 | – | CC1CC2OC2C=CC=CC(=NOCCN2CCCC2=O)Cc2c(Cl)c(O)cc(O)c2C(=O)O1 (stereo not shown) [Compound 69] | 4 | 8 | 4
5 | – | – | 130 | CCOC(=O)ON=C1/C=C/C=C\C2OC2CC(C)OC(=O)c2c(O)cc(O)c(Cl)c2C1 (stereo not shown) [Compound 73] | – | – | –
6 | – | – | – | CNC(=O)ON=C1/C=C/C=C\C2OC2CC(C)OC(=O)c2c(O)cc(O)c(Cl)c2C1 (stereo not shown) [Compound 74] | 27 | 72 | –
7 | – | – | 370 | C[C@@H]1C[C@H]2O[C@@H]2/C=C\C=C\C(=O)Cc2c(Cl)c(O)cc(O)c2C(=O)O1 [Radicicol, radicicol] | 42 | 780 | –
